Experimental data as given in patent EP4775582A1, “MACROCYCLIC COMPOUND AND ANTIBODY-DRUG CONJUGATE THEREOF” (Genfleet Therapeutics (Shanghai) Inc., priority 2023, dated 2025).
pIC50: −log10 of the molar value. Values after ≈ are worked out from the molar mass of the structure shown. Where two headings read alike, the source gives them in different places.

Assays:
AsPC-1 cells = test: 3D cell proliferation assay (CellTiter Glo-3D), AsPC-1; type: cell-based, human; details: for pIC50: AsPC-1 cells (KRAS G12D), 3D, 2% FBS, 5 days, read-out: AsPC-1 AP IC50
Procedure, shortened: (§1)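 Cells seeded at 800 per well (AsPC-1, NCI-H441) in 2% FBS medium and incubated overnight at 37 °C, 5% CO2. Compounds added next day from 10× stock, then 5 days' further culture. Viability read by CellTiter-Glo luminescence; IC50 from four-parameter fit of inhibition versus log concentration.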

KRAS G12V-cRAF = KRAS G12V-cRAF (Homo sapiens, UniProt P01116+P62937, G12V); test: Assay for binding of KRAS to cRAF (HTRF, with Cyclophilin A), KRAS G12V; details: for pIC50: read-out: KRAS G12V-cRAF binding assay, GPPNP-KRAS G12V, IC50 values; for IC50: KRAS G12V-cRAF binding assay(nM), GPPNP-KRAS G12V, IC50 values
Sequence of KRAS G12V-cRAF (P01116 1-188 isoform P01116-2 G12V): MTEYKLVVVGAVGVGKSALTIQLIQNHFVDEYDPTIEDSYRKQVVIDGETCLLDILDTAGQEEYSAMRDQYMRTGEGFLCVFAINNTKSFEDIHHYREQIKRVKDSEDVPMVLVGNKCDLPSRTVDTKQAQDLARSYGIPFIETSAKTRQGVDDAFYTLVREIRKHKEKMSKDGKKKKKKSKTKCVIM
Sequence of KRAS G12V-cRAF (P62937 whole entry): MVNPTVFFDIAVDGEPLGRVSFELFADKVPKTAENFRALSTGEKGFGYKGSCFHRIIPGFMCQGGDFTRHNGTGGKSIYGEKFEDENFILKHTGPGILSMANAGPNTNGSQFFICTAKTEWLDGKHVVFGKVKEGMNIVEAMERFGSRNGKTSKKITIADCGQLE
Description: (§3) The plate was centrifuged at 1000 rpm for 1 min and then incubated in the thermostatic incubator at 20 °C for 30 min. […] The plate was centrifuged at 1000 rpm for 1 min and then incubated in the thermostatic incubator at 20 °C for 60 min. […] The working solution was added to the aforementioned assay plate at 5 µL/well. The plate was centrifuged at 1000 rpm for 1 min and then incubated in the thermostatic incubator at 20 °C for 60 min.

[1] = Solubility experiment (HPLC, external standard); type: physicochemical; details: for solubility at 24 h: pH 7.4, pH 7.4 medium
Procedure, shortened: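 Solid compound (about 1 mg per 1 mL medium) was shaken at 37 °C for 24 h in pH 1.2, 4.5 or 7.4 media, then centrifuged and the supernatant diluted with acetonitrile/water 50/50. Concentration in μg/mL was found by HPLC against an external standard prepared from a DMSO stock.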

AsPC-1 p-ERK = test: Cell p-ERK assay (HTRF), AsPC-1 cells; type: cell-based, human; details: for pIC50: AsPC-1 cells (KRAS G12D), 3 h incubation, read-out: AsPC-1 p-ERK IC50
Procedure, shortened: (§2)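 AsPC-1 (10000/well) or NCI-H441 (20000/well) cells were seeded overnight and then exposed to compound for 3 h at 37 °C. Lysates were probed for ERK phospho-T202/Y204 by HTRF with a 4-hour antibody incubation. IC50 values came from four-parameter fits of inhibition against log concentration.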

KRAS WT-cRAF = KRAS WT-cRAF (Homo sapiens, UniProt P01116+P62937); test: Assay for binding of KRAS to cRAF (HTRF, with Cyclophilin A), KRAS WT; details: for pIC50: read-out: KRAS WT-cRAF binding assay, GPPNP-KRAS WT, IC50 values; for IC50: KRAS WT-cRAF binding assay(nM), GPPNP-KRAS WT, IC50 values
Sequence of KRAS WT-cRAF (P01116 1-188 isoform P01116-2): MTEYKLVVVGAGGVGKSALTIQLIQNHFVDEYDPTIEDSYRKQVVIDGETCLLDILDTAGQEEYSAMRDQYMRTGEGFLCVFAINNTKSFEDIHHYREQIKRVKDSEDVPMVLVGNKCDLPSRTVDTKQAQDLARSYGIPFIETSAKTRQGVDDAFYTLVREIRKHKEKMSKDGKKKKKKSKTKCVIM
Sequence of KRAS WT-cRAF (P62937 whole entry): as the sequence (P62937 whole entry) above
Description: as §3

NCI-H441 cells = test: 3D cell proliferation assay (CellTiter Glo-3D), NCI-H441; type: cell-based, human; details: NCI-H441 cells (KRAS G12V), 2% FBS, 5 days, read-out: H441 AP IC50
Procedure, shortened: as §1

H441 p-ERK = test: Cell p-ERK assay (HTRF), NCI-H441 cells; type: cell-based, human; details: NCI-H441 cells (KRAS G12V), 3 h incubation
Procedure, shortened: as §2

pIC50 (AsPC-1 cells) | pIC50 (KRAS G12V-cRAF) | Solubility at pH 7.4 (µg/mL) ([1]; pH 7.4 medium, 37 °C, 24 h) | pIC50 (AsPC-1 p-ERK) | pIC50 (KRAS WT-cRAF) | pIC50 (NCI-H441 cells) | pIC50 (H441 p-ERK) | pIC50 (AsPC-1 cells; Homo sapiens, ASPC1, 120 h) | IC50 (KRAS G12V-cRAF) [nM] | solubility at 24 h ([1]; pH 7.4 medium, 37 °C, 24 h) [µg/mL] | pIC50 (AsPC-1 p-ERK; Homo sapiens, ASPC1) | IC50 (KRAS WT-cRAF) [nM] | pIC50 (NCI-H441 cells; Homo sapiens, 120 h) | pIC50 (H441 p-ERK; Homo sapiens) | IC50 (AsPC-1 cells; Homo sapiens, ASPC1, 120 h, read-out: AsPC-1 AP IC50(nM)) [nM] | Solubility at pH 7.4 (µg/mL) ([1]; ph 7.4 medium, pH 7.4, 1440 min) | IC50 (AsPC-1 p-ERK; Homo sapiens, ASPC1, 3 h, read-out: AsPC-1 p-ERK IC50(nM)) [nM] | Compound
9.11 | 7.77 | 16.22 | 9.55 | 7.60 | 9.33 | 9.57 |  |  |  |  |  |  |  |  |  |  | CCn1c(-c2cc(C#CCN3CCN(C(=O)CO)CC3)cnc2[C@H](C)OC)c2c3cc(ccc31)-c1csc(n1)C[C@H](NC(=O)[C@H]1[C@@H]3COC[C@@H]31)C(=O)N1CCC[C@H](N1)C(=O)OCC(C)(C)C2 (atropisomer, axis not shown; (Ra)) [Compound Z34, (1R,5S,6r)-N-((6^3S,4S,Z)-1^1-ethyl-1^2-(5-(3-(4-(2-hydroxyacetyl)piperazin-1-yl)prop-1-yn-1-yl)-(Ra)-2-((S)-1-methoxyethyl)pyridin-3-yl)-10,10-dimethyl-5,7-dioxo-6^1,6^2,6^3,6^4,6^5,6^6-hexahydro-1^1H-8-oxa-2(4,2)-thiazola-1(5,3)-indola-6(1,3)-pyridazinacycloundecaphane-4-yl)-3-oxabicyclo[3.1.0]hexane-6-carboxamide]
 |  |  |  |  |  |  | 9.37 | 7.8 | 5.1 (≈ 5.41 µM) | 9.42 | 14.3 | 9.40 | 9.35 |  |  |  | CCn1c(-c2cc(C#CC(CO)N3CCS(=O)(=O)CC3)cnc2C(C)OC)c2c3cc(ccc31)-c1csc(n1)CC(NC(=O)C1C3COCC31)C(=O)N1CCCC(N1)C(=O)OCC(C)(C)C2 (atropisomer, axis not shown; (Ra)) [Compound Z40, (1R,5S,6r)-N-((6^3S,4S,Z)-(Ra)-1^2-(5-(3-(1,1-dioxidothiomorpholino)-4-hydroxybut-1-yn-1-yl)-(Ra)-2-((S)-1-methoxyethyl)-pyridin-3-yl)-1^1-ethyl-10,10-dimethyl-5,7-dioxo-6^1,6^2,6^3,6^4,6^5,6^6-hexahydro-1^1H-8-oxa-2(4,2)-thiazola-1(5,3)-indola-6(1,3)-pyridazinacycloundecaphane-4-yl)-3-oxabicyclo[3.1.0]hexane-6-carboxamide]
 |  |  |  |  |  |  | 9.48 | 9.9 | 15.6 (≈ 16.4 µM) | 8.88 | 18.9 | 9.19 | 8.74 |  |  |  | COCCn1c(-c2cc(C#CCN3CCC(C#N)(CO)CC3)c[n+]([O-])c2C(C)OC)c2c3cc(ccc31)-c1csc(n1)CC(NC(=O)C1C(C)C1C)C(=O)N1CCCC(N1)C(=O)OCC(C)(C)C2 (atropisomer, axis not shown; (Ra)) [Compound Z42-1, 5-(3-(4-cyano-4-(hydroxymethyl)piperidin-1-yl)prop-1-yn-1-yl)-(Ra)-3-((6^3S,4S,Z)-4-((1r,2R,3S)-2,3-dimethylcyclopropane-1-carboxamido)-1^1-(2-methoxyethyl)-10,10-dimethyl-5,7-dioxo-6^1,6^2,6^3,6^4,6^5,6^6-hexahydro-1^1H-8-oxa-2(4,2)-thiazola-1(5,3)-indola-6(1,3)-pyridazinacycloundecaphane-1^2-yl)-2-((S)-1-methoxyethyl)pyridine 1-oxide]
 |  |  |  |  |  |  | 8.92 | 11.8 | 55.8 (≈ 61.6 µM) | 8.76 | 25.2 | 9.42 | 9.38 |  |  |  | CCn1c(-c2cc(C#CCN3CCN(C(=O)CO)CC3)cnc2C(C)OC)c2c3cc(ccc31)-c1coc(n1)CC(NC(=O)C1C3COCC31)C(=O)N1CCCC(N1)C(=O)OCC(C)(C)C2 (atropisomer, axis not shown; (Ra)) [Compound Z44, (1R,5S,6r)-N-((6^3S,4S,Z)-(Ra)-1^2-(5-(3-(4-(2-hydroxyacetyl)piperazin-1-yl)prop-1-yn-1-yl)-2-((S)-1-methoxyethyl)pyridin-3-yl)-1^1-ethyl-10,10-dimethyl-5,7-dioxo-6^1,6^2,6^3,6^4,6^5,6^6-hexahydro-1^1H-8-oxa-2(4,2)-oxazola-1(5,3)-indola-6(1,3)-pyridazinacycloundecaphane-4-yl)-3-oxabicyclo[3.1.0]hexane-6-carboxamide]
 |  |  |  |  |  |  | 8.92 | 19.3 | 109 (≈ 118 µM) | 8.63 | 34.4 | 9.12 | 9.24 |  |  |  | CCn1c(-c2cc(C#CCN3CCN(C(=O)CN)CC3)cnc2C(C)OC)c2c3cc(ccc31)-c1csc(n1)CC(NC(=O)C1C3COCC31)C(=O)N1CCCC(N1)C(=O)OCC(C)(C)C2 (atropisomer, axis not shown; (Ra)) [Compound Z47, (1R,5S,6r)-N-((6^3S,4S,Z)-1^1-ethyl-(Ra)-1^2-(5-(3-(4-glycylpiperazin-1-yl)prop-1-yn-1-yl)-2-((S)-1-methoxyethyl)pyridin-3-yl)-10,10-dimethyl-5,7-dioxo-6^1,6^2,6^3,6^4,6^5,6^6-hexahydro-1^1H-8-oxa-2(4,2)-thiazola-1(5,3)-indola-6(1,3)-pyridazinacycloundecaphane-4-yl)-3-oxabicyclo[3.1.0]hexane-6-carboxamide]
 |  |  |  |  |  |  | 8.30 | 9.05 | 71.2 (≈ 77.1 µM) | 8.33 | 31.3 | 8.70 | 8.78 |  |  |  | CCn1c(-c2cc(C#CCN3CCN(C(=O)CO)CC3)c[n+]([O-])c2C(C)OC)c2c3cc(ccc31)-c1csc(n1)CC(NC(=O)C1C(C)C1C)C(=O)N1CCCC(N1)C(=O)OCC(C)(C)C2 (atropisomer, axis not shown; (Ra)) [Compound Z48, (Ra)-3-((6^3S,4S,Z)-4-((1r,2R,3S)-2,3-dimethylcyclopropane-1-carboxamido)-1^1-ethyl-10,10-dimethyl-5,7-dioxo-6^1,6^2,6^3,6^4,6^5,6^6-hexahydro-1^1H-8-oxa-2(4,2)-thiazola-1(5,3)-indola-6(1,3)-pyridazinacycloundecaphane-1^2-yl)-5-(3-(4-(2-hydroxyacetyl)piperazin-1-yl)prop-1-yn-1-yl)-2-((S)-1-methoxyethyl)pyridine 1-oxide]
 | 8.07 |  |  | 7.71 |  |  |  |  |  |  |  | 9.96 | 9.49 | 0.12 | 66.54 | 0.3 | CCn1c(-c2cc(C#CCN3CCS(=O)(=O)CC3)cnc2[C@H](C)NC)c2c3cc(ccc31)-c1csc(n1)C[C@H](NC(=O)[C@H]1[C@H](C)[C@@H]1C)C(=O)N1CCC[C@H](N1)C(=O)OCC(C)(C)C2 (atropisomer, axis not shown; (Ra)) [Compound Z66, (1r,2R,3S)-N-((6^3S,4S,Z)-(Ra)-1^2-(5-(3-(1,1-dioxidothiomorpholino)prop-1-yn-1-yl)-2-((S)-1-(methylamino)ethyl)pyridin-3-yl)-1^1-ethyl-10,10-dimethyl-5,7-dioxo-6^1,6^2,6^3,6^4,6^5,6^6-hexahydro-1^1H-8-oxa-2(4,2)-thiazola-1(5,3)-indola-6(1,3)-pyridazinacycloundecaphane-4-yl)-2,3-dimethylcyclopropane-1-carboxamide]
